We go through 27 compounds from BindingDB's records for PubMed 8102785 (University of Pennsylvania, 1993).

*1 amine or outer side, *2 acyl side, *3 side chain or, on linkers, in order; H or OH if unused. Where a SMILES comes first, the peptide text is derived from it. Bridges are numbered along the chain shown (N, C = ends). [ ]: non-standard residue; d: D form. The star is where a group is joined. ξ: configuration not given here. Phe(4-NO2) = N[C@@H](Cc1ccc([N+](=O)[O-])cc1)C(=O)O; X3 = C[C@@H](C(=O)[*:2])N(Cc1ccc2ccccc2c1)[*:1]; NH(1-naphthylmethyl) = c1ccc2c(CN*)cccc2c1; Phe(4-Cl) = N[C@@H](Cc1ccc(Cl)cc1)C(=O)O; dPhe(4-Cl) = N[C@H](Cc1ccc(Cl)cc1)C(=O)O; 1Nal = N[C@@H](Cc1cccc2ccccc12)C(=O)O; 2Nal = N[C@@H](Cc1ccc2ccccc2c1)C(=O)O; d1Nal = N[C@H](Cc1cccc2ccccc12)C(=O)O; d2Nal = N[C@H](Cc1ccc2ccccc2c1)C(=O)O; dThr(3ξ) = CC(O)[C@@H](N)C(=O)O; X1 = O=C(C(N[*:1])S[*:3])[*:2]; Thr(3ξ) = CC(O)[C@H](N)C(=O)O; NMeA = CN[C@@H](C)C(=O)O; ξF = NC(Cc1ccccc1)C(=O)O; Abu = CC[C@H](N)C(=O)O; X2 = CC(O)[C@H](CO)N*; Ahp = NCCCCCCC(=O)O; ξC = NC(CS)C(=O)O; Mpa = O=C(O)CCS

For this experiment, the target named is Somatostatin receptor type 4 (Rattus norvegicus, UniProt P30937).
Somatostatin receptor type 4, sequence (P30937 whole entry): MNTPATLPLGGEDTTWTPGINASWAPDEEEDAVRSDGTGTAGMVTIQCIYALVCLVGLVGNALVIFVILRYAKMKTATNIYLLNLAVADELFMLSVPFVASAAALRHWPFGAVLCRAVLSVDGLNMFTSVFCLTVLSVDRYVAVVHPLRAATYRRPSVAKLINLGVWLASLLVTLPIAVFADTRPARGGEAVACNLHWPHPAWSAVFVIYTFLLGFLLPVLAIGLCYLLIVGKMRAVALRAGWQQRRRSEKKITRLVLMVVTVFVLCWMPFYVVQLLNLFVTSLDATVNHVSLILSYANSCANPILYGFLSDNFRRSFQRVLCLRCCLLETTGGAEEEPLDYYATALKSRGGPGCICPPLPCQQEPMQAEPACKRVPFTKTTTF

The compound `CC(C)[C@@H]1NC(=O)[C@@H](CCCCN)NC(=O)[C@@H](Cc2c[nH]c3ccccc23)NC(=O)[C@@H](Cc2ccc(O)cc2)NC(=O)[C@@H](C)N(C)C(=O)[C@@H](Cc2ccccc2)NC1=O` showed a Ki of 26 nM.

In turn, `CC(O)[C@H](CO)NC(=O)[C@@H]1CSSCC(NC(=O)C(N)Cc2ccccc2)C(=O)N[C@H](Cc2ccccc2)C(=O)N[C@H](Cc2c[nH]c3ccccc23)C(=O)N[C@H](CCCCN)C(=O)N[C@H](C(C)O)C(=O)N1` (some centres not stated) (H-[ξF][ξC][dF][dW][dK][dThr(3ξ)]C-X2; disulfide 2-7) displayed a Ki of 0.57 nM.

Regarding `C[C@@H](O)[C@@H]1NC(=O)[C@H](CCCCN)NC(=O)[C@@H](Cc2c[nH]c3ccccc23)NC(=O)[C@H](Cc2ccccc2)NC(=O)[C@@H]2CCCN2C(=O)[C@H](Cc2ccccc2)NC1=O` (cyclo(PF[dW]KTF)), the inhibition constant Ki was 3.2 nM.

As for `CC(C)[C@@H]1NC(=O)[C@H](CCCCN)NC(=O)[C@@H](Cc2c[nH]c3ccccc23)NC(=O)[C@H](Cc2ccc(O)cc2)NC(=O)[C@@H](NC(=O)[C@H](N)Cc2ccc3ccccc3c2)CSSC[C@@H](C(=O)N[C@H](C(N)=O)[C@@H](C)O)NC1=O` [3-(2-Naphtyl)-D-Ala-L-Cys(1)-L-Tyr-D-Trp-L-Lys-L-Val-L-Cys(1)-L-Thr-NH2], the inhibition constant (Ki) stood at 0.1 nM.

Regarding `C[C@@H](O)[C@@H]1NC(=O)[C@H](CCCCN)NC(=O)[C@@H](Cc2c[nH]c3ccccc23)NC(=O)[C@H](Cc2ccccc2)NC(=O)[C@@H]2CSSCC(NC1=O)C(=O)NCCCCCCC(=O)N2` [(1R,4S,7S,10R,13S,16R)-4-[(R)-1-Hydroxyethyl]-7-(4-aminobutyl)-10-(1H-indole-3-ylmethyl)-13-benzyl-28,29-dithia-2,5,8,11,14,17,25-heptaazabicyclo[14.10.4]triacontane-3,6,9,12,15,18,26-heptone] (cyclo([Ahp]CF[dW]KT[ξC]); disulfide 2-7), the affinity corresponds to a Ki of 1.2 nM.

Turning to `CC1NC(=O)C(CCCCN)NC(=O)C(Cc2c[nH]c3ccccc23)NC(=O)C(Cc2ccc(O)cc2)NC(=O)C(NC(=O)C(N)Cc2ccccc2)CSSCC(C(=O)NCc2cccc3ccccc23)NC1=O` (configuration not stated) [BIM 23034] (H-FCYWKAC-{NH(1-naphthylmethyl)}; disulfide 2-7; configuration not given here), the affinity corresponds to a Ki of 0.19 nM.

Take `CC(C)[C@@H]1NC(=O)[C@H](CCCCN)NC(=O)[C@@H](Cc2c[nH]c3ccccc23)NC(=O)[C@H](Cc2ccc(O)cc2)NC(=O)[C@@H](NC(=O)[C@H](N)Cc2ccc3ccccc3c2)CSSC[C@@H](C(=O)N[C@@H](Cc2ccc3ccccc3c2)C(N)=O)NC1=O` [BIM 23042] (H-[d2Nal]CY[dW]KVC[2Nal]-NH2; disulfide 2-7): the affinity corresponds to a Ki of 5.2 nM.

`CC(O)[C@H](NC(=O)[C@H](CCCCN)NC(=O)[C@@H](Cc1c[nH]c2ccccc12)NC(=O)[C@H](Cc1ccccc1)NC(=O)[C@@H](C)NC(=O)[C@@H](N)Cc1ccccc1)C(=O)N[C@@H](C)C(=O)N[C@H](C(N)=O)[C@@H](C)O` (some centres not stated) [BIM 23051] (H-F[dA]F[dW]K[Thr(3ξ)]AT-NH2) showed a Ki of 53 nM.

Regarding `CC(C)[C@H](NC(=O)[C@H](CCCCN)NC(=O)[C@@H](Cc1c[nH]c2ccccc12)NC(=O)[C@H](Cc1ccc(O)cc1)NC(=O)[C@H](Cc1ccccc1)NC(=O)[C@H](N)Cc1ccccc1)C(=O)N[C@@H](Cc1ccccc1)C(=O)N[C@H](Cc1cccc2ccccc12)C(N)=O` [BIM 23056] (H-[dF]FY[dW]KVF[d1Nal]-NH2), the inhibition constant Ki was found to be 43 nM.

As to `CC(C)[C@H](NC(=O)[C@H](CCCCN)NC(=O)[C@@H](Cc1c[nH]c2ccccc12)NC(=O)[C@H](Cc1ccc(O)cc1)NC(=O)[C@H](Cc1ccc(Cl)cc1)NC(=O)[C@H](N)Cc1ccccc1)C(=O)N[C@@H](Cc1ccccc1)C(=O)N[C@H](C(N)=O)[C@@H](C)O` [BIM 23057] (H-[dF][Phe(4-Cl)]Y[dW]KVFT-NH2), the affinity corresponds to a Ki of 8.1 nM.

As to `CC(O)C1NC(=O)C(CCCCN)NC(=O)C(Cc2c[nH]c3ccccc23)NC(=O)C(Cc2ccc(O)cc2)NC(=O)C(NC(=O)C(N)Cc2ccccc2)CSSCC(C(=O)NCc2cccc3ccccc23)NC1=O` (configuration not stated) [BIM 23060] (H-FCYWKTC-{NH(1-naphthylmethyl)}; disulfide 2-7; configuration not given here), affinity was put at a Ki of 0.09 nM.

As for `CC(C)[C@H](NC(=O)[C@H](CCCCN)NC(=O)[C@@H](Cc1c[nH]c2ccccc12)NC(=O)[C@H](Cc1ccc(O)cc1)NC(=O)[C@H](Cc1ccc(Cl)cc1)NC(=O)[C@@H](N)Cc1ccccc1)C(=O)N[C@@H](Cc1ccccc1)C(=O)N[C@@H](Cc1ccc2ccccc2c1)C(N)=O` [BIM 23063] (H-F[Phe(4-Cl)]Y[dW]KVF[2Nal]-NH2), the Ki was determined as 43 nM.

In the case of `CC(C)[C@H](NC(=O)[C@H](CCCCN)NC(=O)[C@@H](Cc1c[nH]c2ccccc12)NC(=O)[C@H](Cc1ccc(O)cc1)NC(=O)[C@H](Cc1ccc(Cl)cc1)NC(=O)[C@@H](N)Cc1ccccc1)C(=O)N[C@@H](Cc1ccccc1)C(=O)N[C@H](C)C(N)=O` [BIM 23064] (H-F[Phe(4-Cl)]Y[dW]KVF[dA]-NH2), the Ki was 17 nM.

Compound `CC(C)[C@H](NC(=O)[C@H](CCCCN)NC(=O)[C@@H](Cc1c[nH]c2ccccc12)NC(=O)[C@H](Cc1ccc(O)cc1)NC(=O)[C@H](Cc1ccc([N+](=O)[O-])cc1)NC(=O)[C@H](N)Cc1ccccc1)C(=O)N[C@@H](Cc1ccccc1)C(=O)N[C@H](C(N)=O)[C@@H](C)O` [BIM 23066] (H-[dF][Phe(4-NO2)]Y[dW]KVFT-NH2) gave an inhibition constant (Ki) of 2.4 nM. Against the preceding compound, the Ki is about 7.1-fold lower.

In turn, `CC[C@H](NC(=O)[C@@H](N)Cc1ccc(Cl)cc1)C(=O)N[C@@H](Cc1ccc(O)cc1)C(=O)N[C@H](Cc1c[nH]c2ccccc12)C(=O)N[C@@H](CCCCN)C(=O)N[C@H](C(=O)N[C@@H](C)C(=O)N[C@H](Cc1ccccc1)C(N)=O)C(C)C` [BIM 23067] (H-[Phe(4-Cl)][Abu]Y[dW]KVA[dF]-NH2) showed a Ki of 15 nM.

`C[C@@H](O)[C@H](NC(=O)[C@H](Cc1ccccc1)NC(=O)[C@@H](NC(=O)[C@H](CCCCN)NC(=O)[C@@H](Cc1c[nH]c2ccccc12)NC(=O)[C@H](Cc1ccc(O)cc1)NC(=O)[C@H](Cc1ccc(Cl)cc1)NC(=O)[C@H](N)Cc1ccccc1)[C@@H](C)O)C(N)=O` [BIM 23068] (H-[dF][Phe(4-Cl)]Y[dW]KTFT-NH2): affinity was put at a Ki of 1.1 nM.

As to `CC(O)[C@H](NC(=O)[C@H](CCCCN)NC(=O)[C@@H](Cc1c[nH]c2ccccc12)NC(=O)[C@H](Cc1ccc(O)cc1)NC(=O)[C@@H](C)NC(=O)[C@@H](N)Cc1ccccc1)C(=O)N[C@@H](C)C(=O)N[C@@H](Cc1cccc2ccccc12)C(N)=O` (some centres not stated) [BIM 23070] (H-F[dA]Y[dW]K[Thr(3ξ)]A[1Nal]-NH2), the inhibition constant (Ki) was 10 nM. This Ki is about 9.1-fold higher than that of the compound before.

`CC[C@@H]1NC(=O)[C@H](CCCCN)NC(=O)[C@@H](Cc2c[nH]c3ccccc23)NC(=O)[C@H](Cc2ccc(O)cc2)NC(=O)[C@H](C)N(C)C(=O)[C@H](Cc2ccccc2)NC1=O` [BIM-23027] (cyclo([Abu]F[NMeA]Y[dW]K)) had a Ki of 6.2 nM.

`CC(C)[C@H](NC(=O)[C@H](CCCCN)NC(=O)[C@@H](Cc1c[nH]c2ccccc12)NC(=O)[C@H](Cc1ccc(O)cc1)NC(=O)[C@H](Cc1ccccc1)NC(=O)[C@@H](N)Cc1ccccc1)C(=O)N[C@@H](Cc1ccccc1)C(=O)N[C@H](C(N)=O)[C@@H](C)O` [BIM-23058] (H-FFY[dW]KVFT-NH2) yielded a Ki of 1.2 nM.

The compound `CC(C)[C@@H]1NC(=O)[C@H](CCCCN)NC(=O)[C@@H](Cc2c[nH]c3ccccc23)NC(=O)[C@H](Cc2ccc(O)cc2)NC(=O)CCSSC(C(=O)N[C@@H](Cc2ccccc2)C(N)=O)NC1=O` (some centres not stated) [CAS_117580-24-2] ([Mpa]Y[dW]KV[X1]F-NH2; disulfide 1-6) displayed an inhibitory constant (Ki) of 3.9 nM.

For the compound `C[C@@H](O)[C@H](NC(=O)[C@H](Cc1ccccc1)NC(=O)[C@@H](NC(=O)[C@H](CCCCN)NC(=O)[C@@H](Cc1c[nH]c2ccccc12)NC(=O)[C@H](Cc1ccccc1)NC(=O)[C@H](Cc1ccccc1)NC(=O)[C@H](N)Cc1ccccc1)[C@@H](C)O)C(N)=O` [CAS_133073-82-2] (H-[dF]FF[dW]KTFT-NH2), the affinity corresponds to a Ki of 0.002 nM.

For `C[C@@H](O)[C@H](NC(=O)[C@H](Cc1ccccc1)NC(=O)[C@@H](NC(=O)[C@H](CCCCN)NC(=O)[C@@H](Cc1c[nH]c2ccccc12)NC(=O)[C@H](Cc1ccc(O)cc1)NC(=O)[C@H](Cc1ccc(Cl)cc1)NC(=O)[C@H](N)Cc1ccc2ccccc2c1)[C@@H](C)O)C(N)=O` [CAS_150155-63-8] (H-[d2Nal][Phe(4-Cl)]Y[dW]KTFT-NH2), affinity was put at a Ki of 9.5 nM.

On to `CC(C)[C@H](NC(=O)[C@H](CCCCN)NC(=O)[C@@H](Cc1c[nH]c2ccccc12)NC(=O)[C@H](Cc1ccc(O)cc1)NC(=O)[C@H](C)NC(=O)[C@H](N)Cc1ccc(Cl)cc1)C(=O)N[C@@H](C)C(=O)N[C@@H](Cc1ccc2ccccc2c1)C(N)=O` [CAS_150155-67-2] (H-[dPhe(4-Cl)]AY[dW]KVA[2Nal]-NH2), for which the affinity corresponds to a Ki of 14 nM.

`CC(C)C1NC(=O)C(CCCCN)NC(=O)C(Cc2c[nH]c3ccccc23)NC(=O)C(Cc2ccc(O)cc2)NC(=O)C(C)N(C)C(=O)C(Cc2ccccc2)NC1=O` (configuration not stated) [CAS_3086456] gave a Ki of 5.5 nM.

Compound `CC(C)[C@H](NC(=O)[C@H](CCCCN)NC(=O)[C@@H](Cc1c[nH]c2ccccc12)NC(=O)[C@H](Cc1ccc(O)cc1)NC(=O)[C@H](C)NCc1ccc2ccccc2c1)C(=O)N[C@@H](C)C(=O)N[C@H](C(N)=O)[C@@H](C)O` [D-Nal-Ala-Tyr-D-Trp-Lys-Val-Ala-Thr-NH2] (H-[X3]Y[dW]KVAT-NH2) had a Ki of 146 nM. Against the preceding compound, the Ki is about 27-fold higher.

On to `C[C@@H](O)[C@H](NC(=O)[C@@H]1CSSC[C@H](NC(=O)[C@H](N)Cc2ccc3ccccc3c2)C(=O)N[C@@H](Cc2ccc(O)cc2)C(=O)N[C@H](Cc2c[nH]c3ccccc23)C(=O)N[C@@H](CCCCN)C(=O)N[C@@H]([C@@H](C)O)C(=O)N1)C(N)=O` [D-Nal-c[Cys-Tyr-D-Trp-Lys-Thr-Cys]-Thr-NH2], for which the inhibitory constant (Ki) turned out to be 0.08 nM. Compared with the last compound, the Ki is about 1800-fold lower.

`CC(C)[C@H](NC(=O)[C@H](CCCCN)NC(=O)[C@@H](Cc1c[nH]c2ccccc12)NC(=O)[C@H](Cc1ccc(O)cc1)NC(=O)[C@H](C)NC(=O)[C@H](N)Cc1ccccc1)C(=O)N[C@@H](C)C(=O)N[C@H](Cc1ccc2ccccc2c1)C(N)=O` [D-Phe-AIa-Tyr-D-Trp-Lys-Val-Ala-D-Nal-NH2] (H-[dF]AY[dW]KVA[d2Nal]-NH2): the affinity, expressed as Ki, was 5.9 nM.

As a reminder, the Ki is a dissociation constant, usually derived from enzyme kinetics or from competition with a known ligand. A low value points to tighter binding.
